Test results taken from article PMC7261837, “Circumdatin D Exerts Neuroprotective Effects by Attenuating LPS-Induced Pro-Inflammatory Responses and Downregulating Acetylcholinesterase Activity In Vitro and In Vivo” (Frontiers in Pharmacology, 2020).

Experiments:
BV-2 cells = experiment: MTT cytotoxicity / cell survivability in BV-2 cells; type: cell-based, murine; details: 1 μg/ml LPS, doses 0–100 μM, 48 h
Description: In vitro cytotoxicity was detected using the MTT assay. Cells were treated with different concentrations of circumdatins in the presence or absence of LPS for 48 h. Then, MTT reagent was added to each well and the plates were further incubated at 37°C for 4 h. The absorbance was read at 570 nm using a microplate spectrophotometer (Thermo Scientifics, USA).
Cell surviability was detected using the MTT assay. Cells were seeded in 96-well plates and incubated overnight, following which the cells were treated with different concentrations of circumdatins with or without 1µg/mL of LPS for indicated time. Then, the cells were subsequently cultured with MTT and incubated for 4 hours at 37°C. Thereafter, the purple formazan dye was dissolved in DMSO and the absorbance was measured at 570 nm.

primary microglia cells = experiment: NO, TNF-α and IL-1β production in LPS-induced primary microglia; type: cell-based, Sprague Dawley rats; details: 1.0 μg/ml LPS, 10, 20, 50 μM
Description: Primary microglia were prepared from the cortical tissue of neonatal (1–3 d) Sprague Dawley rats as [Ni and Aschner (2010)] described and primary cortical neurons were isolated from embryos of pregnant Sprague Dawley rats of E-18 ([Zeng et al., 2012]). All experimental manipulations with the animals was reviewed and approved by the animal experimental ethics committee of Peking University. The animals used in the work were performed in accordance with the Animal Care and Use Guidelines of Peking University.
The NO levels in culture media was determined using a Griess method. Cells were treated with different concentrations of circumdatins in the presence or absence of LPS for 24 h. After that, the supernatant fraction of the culture media was collected and mixed with the same volume of Griess reagent (1% sulfanilamide/0.1% naphthyl ethylene diamine dihydrochloride/2% H3PO4). Then, the absorbance was measured at 540 nm using a microplate spectrophotometer (Thermo Scientifics, USA). The concentration of nitrite was calculated from a calibration curve obtained from standards sodium nitrite solutions.
Cells were treated with different concentrations of circumdatin D in the presence or absence of LPS for indicated time. […] The levels of TNF-α and IL-β in the supernatants were determined by ELISA kits according to the manufacturer's instructions.

[1] = system: primary cortical neurons co-cultured with LPS-activated primary microglia; experiment: Microglia-neuron co-culture neuroprotection (MTT, TUNEL, crystal violet); type: cell-based, Sprague Dawley rats
Description: For co-culture experiments, primary microglia cells were seeded on the upper insert of Transwell chambers (pore size 3 μm; Corning Costar, USA) in 24-well plates, and neurons were grown in the lower plate wells. Circumdatin D was added to primary microglia cells 1 h before LPS stimulation. After 48 h of coculture, the neurons in the bottom of 24-well plate were collected for the following experiments.
[…] Then, the cells were stained with 1% crystal violet solution for 15 min. Images were captured with an optical microscope. Five different fields were selected for each group for observing cellular morphology.
[…] TUNEL staining was performed to detect apoptosis using in situ cell death detection Kit (Roche Diagnostics, Mannheim, Germany). Hochest 33342 staining was used to detect total cell nuclei. Images were taken and analyzed on a confocal microscopy (Leica, Germany). Six fields from each sample were randomly selected and analyzed.

C. elegans CL4176 [2] = experiment: Nematode toxicity assay; type: in vivo, Caenorhabditis elegans; details: 24 and 48 h, tested dose, Figure S19
Description: To eliminate the confounding factor of toxicity in the procedure, CL4176 worms were exposed to increasing concentrations of circumdatin D dissolved in NGM (0, 100, 200, 500 µM) for 24 h and 48h at 16 °C, respectively. Further, nematodes were exposed to 0.4% DMSO as the negative control. The animals were scored as live or death using a Motic dissecting microscope (Motic Inc., LTD., Hong Kong, China). The worms were considered as death if there was no response when gently touched with a platinum wire. Each independent assay included three NGM plates with thirty worms in each one. Toxicity was expressed as a total percentage of worm survival.

[3] = system: AChE in C. elegans CL4176; experiment: AChE activity of C. elegans CL4176; type: in vivo, Caenorhabditis elegans; details: CL4176 nematodes
Description: AChE activity of C. elegans was determined by the method as described ([Xin et al., 2013]). Briefly, approximately 1,000 nematodes with or without circumdatin D treatment were collected and then triturated mechanically in PBS (50 mM, pH 7.4) on ice. The lysate supernatant was collected by centrifugation and AChE activity in the supernatant was determined using modified Ellman method. The protein concentration was determined by BCA protein assay. AChE activity was expressed as U/mg proteins.

C. elegans CL4176 [4] = experiment: qRT-PCR of ace-1, ace-2, F22E5.6 and ZC239.12 in CL4176; type: in vivo, Caenorhabditis elegans; details: CL4176, 36 h post temperature up-shift
Text: Related gene expression levels were detected as [Xin et al. (2013)] described. After treatment, CL4176 worms were collected and total RNA was extracted using TRIzol method. The cDNA was synthesized using cDNA synthesis kit (Invitrogen) according to manual instructions. The mRNA expression of target genes viz. F22E5.6, ZC239.12, ace-1 and ace-2 was quantified in comparison to housekeeping gene F23B2.13 using SYBR green detection method on ABI 7500 system (Applied Biosystems). The relative gene expression was calculated using comparative Ct (ΔΔCt) method. The following primers in Table 2 were used in this study.

TLR4 and MyD88 = experiment: Western blot of TLR4 and MyD88 in LPS-induced BV-2 cells; type: cell-based, murine; details: 1 μg/ml LPS, 10, 20, 50 μM, 6 h
Description: (§1) Total cell proteins were lysed using cell extraction buffer containing phenylmethylsulfonyl ﬂuoride and protease inhibitor cocktail. The cytosolic and nuclear extracts were collected using the Nuclear and Cytosolic extraction kit. The protein extracts were separated on SDS-PAGE and transferred to PVDF membranes (Millipore). The membrane was blocked with 5% nonfat milk for 1 h at room temperature, and incubated with indicated primary antibodies overnight at 4°C. After washing, the membrane was incubated with secondary antibodies conjugated to horseradish peroxidase (Proteintech, USA) at room temperature for 1 h. Then, the proteins of interest were visualized utilizing a chemiluminescence (ECL) detection system. The relative optical densities were analyzed using the Image Master™ 2D Elite software.

ERK1/2-JNK1/2-p38 MAPKs = experiment: MAPK phosphorylation in LPS-induced BV-2 cells (Western blot); type: cell-based, murine; details: 1 μg/ml LPS, 10, 20, 50 μM, 3 h
Description: as §1

COc1ccc2c(c1)C(=O)N1CCC[C@H]1c1nc3ccc(OC)cc3c(=O)n1-2 [circumdatin D]
cytotoxicity in the presence of LPS (MTT) (BV-2 cells): did not induce significant cellular death
LPS-stimulated production of NO, TNF-α and IL-1β (primary microglia cells): significantly decreased the production of NO, TNF-α and IL-1β
neuron death in co-cultures (MTT) ([1]; microglia treated prior to LPS stimulation (1 μg/ml), 48 h): reduced neuron death
neuron apoptosis, TUNEL-positive cells ([1]; microglial-neuronal co-culture, 1 μg/ml LPS): significantly reduced the numbers of TUNEL-positive cells
neuronal morphology (crystal violet staining) ([1]; microglial-neuronal co-culture, 1 μg/ml LPS, 48 h): markedly reversed the neuronal injury
toxicity on CL4176 nematodes (survival) (C. elegans CL4176 [2]): no toxicity on the normal survival of the nematode
AChE activity elevated upon temperature upshift [3]: significantly attenuated these changes in a dose-dependent manner
AChE genes (ace-1, ace-2) and inflammation related genes (F22E5.6, ZC239.12) expression (C. elegans CL4176 [4]): inhibited temperature raise-induced AChE and inflammation-associated gene expressions
LPS-induced TLR4 expression (TLR4 and MyD88): dramatically reversed the LPS-induced TLR4 expression
MyD88 expression (TLR4 and MyD88): suppressed the MyD88 expression
MAPK (ERK1/2, JNK1/2, p38) phosphorylation (ERK1/2-JNK1/2-p38 MAPKs): markedly suppressed the phosphorylation
